Experimental data as given in patent US9340622B2, “Synthetic immunogen useful for generating long lasting immunity and protection against pathogens” (priority 2010, dated 2016).
Read-outs that look alike come from different tables or passages of the source. Ends that are not written are not given here.

Key:
CD4 T cells = experiment: Intracellular staining for IFN-γ in CD4 T cells; assay type: cell-based; settings: splenocytes of mice immunized with lipopeptide containing SEQ ID No. 1, cultured 48 h, restimulated 6 h, FIG. 6
Method: FIG. 6. CD4 T cells from mice immunized with immunogen containing SEQ ID No. 1 produced IFN-γ on in vitro peptide restimulation. Mice were immunized with lipopeptide containing SEQ ID No. 1. Splenocytes from the immunized mice were cultured with A) medium; B) Pam2Cys; C) non-lipidated peptide (SEQ ID No. 1); D) lipopeptide (containing SEQ ID No. 1) for 48 h. Cells were restimulated for 6 h and stained for surface CD4 and intracellular for IFN-γ. Representative flow cytometry contours depict IFN-γ producing CD4 T cells and numbers indicate their percentage.
Mice were immunized with the developed immunogenic lipopeptides (20 nmol/animal). Twenty-one days later, a booster dose (10 nmol) was administered. Animals were sacrificed 45 days post booster immunization.
Lymphocytes (2×10^6 cells/ml) were cultured with peptides in triplicates in 96 w plate for 48 h. Cells were pooled and washed twice with wash buffer (PBS containing FBS-1%). Cells were re-stimulated with PMA (50 ng/ml) and ionomycin (1 μg/ml) for 6 h/37° C. and in the last 4 h brefeldin A (10 μg/ml) was added in cultures. After 6 h of activation, cells, were washed twice with staining buffer (BSA-1%, NaN3-0.01% in PBS). […] Finally, cells were fixed in parafolmaldehyde-1% and acquired on FACS Aria II and data was analyzed by FACS DIVA (BD Biosciences, San Jose, Calif.).

M. tuberculosis H37Rv [1] = tested on: M. tuberculosis H37Rv; parameters: species or system Duncan-Hartley guinea pigs; settings: guinea pig, in vivo
M. tuberculosis H37Rv [2] = tested on: M. tuberculosis H37Rv; parameters: species or system mice; settings: mouse, in vivo
[3] = tested on: human peripheral blood mononuclear cells; experiment: T cell proliferation of human PBMCs (3H-thymidine incorporation); assay type: cell-based; settings: compared to non-lipidated peptide counterparts, FIG. 9
Bone marrow derived DCs = experiment: Activation and MHC markers on bone marrow derived DCs; assay type: cell-based, C57BL/6 mice; settings: BMDCs day 7, treated 12 hrs
Method: FIG. 4. Lipidated peptides [immunogens] enhance DC maturation. (A) BALB/c mice were immunized with lipidated peptides [immunogen] and free peptides. Total splenocytes were recovered and in vitro stimulated with the lipidated and free peptides. After 48 hrs of incubation, they were harvested and stained for DC population (CD11c^+/CD40^+). CD11c^+/CD40^+ population indicates mature DCs. Lipidated immunogen constructs were able to induce DC maturation compared to their unlipidated counterparts. (B) Bone marrow derived DCs from C57BL/6 mice were cultured using standard protocol. On day 7 of culture they were treated with free or lipidated peptides for 12 hrs and then the cells were harvested and stained for activation markers. […] (C) On day 7 of culture, bone marrow derived DCs were treated with free or lipidated peptides for 12 hrs. Later on, the cells were harvested and stained for CD74 (immature MHC) and IA^b (mature MHC).

[4] = compared to free peptide, FIG. 4C

| Molecule | production of IFN-γ in CD4 T cells (CD4 T cells) | Mycobacterial load in lungs (CFU) (M. tuberculosis H37Rv [1]) | Mycobacterial load in lungs (CFU) (M. tuberculosis H37Rv [2]) | proliferation of human PBMCs from sputum positive tuberculosis patient [3] | expression of CD74 (immature MHC) (Bone marrow derived DCs; [4]) | expression of IA^b (mature MHC) (Bone marrow derived DCs; [4]) | expression of CD80, CD86, CD40 (Bone marrow derived DCs; compared to p91 treated cells, FIG. 4B) |
| --- | --- | --- | --- | --- | --- | --- | --- |
| L91: immunogen wherein X1=SEQ ID. No. 1 and X2=0; peptide linked via two serines to Pam2Cys (SEFAYGSFVRTVSLPVGADE; also: linked via two serines to Pam2Cys, end not given here; listed as Mycobacterium tuberculosis) | predominant production of IFN-γ | significantly lower bacterial load in lungs | restricted the growth of mycobacterium significantly | enhanced the proliferation | decrease in expression | enhanced expression | enhanced expression |
| CCCCCCCCCCCCCCCC(=O)OCC(CSC[C@H](N)C(=O)O)OC(=O)CCCCCCCCCCCCCCC (stereo partly drawn) [Pam2Cys, S-[2,3-bis(palmitoyloxy)propyl]cysteine, reference compound] | did not elicit production of IFN-γ | – | – | – | – | – | – |
